From patent publication US7511061B2, “Triazoles as farnesyl transferase inhibitors” (Janssen Pharmaceutica N.V., priority 1999, dated 2009)

Target: farnesyl protein transferase (FPTase) (Homo sapiens, UniProt P49354+P49356)
Assay: In vitro assay for inhibition of farnesyl protein transferase
Type: biochemical
Details: test dose of 10^−7 M
Procedure: An in vitro assay for inhibition of farnesyl transferase was performed essentially as described in WO 98/40383, pages 33-34.

Q: How did the inhibition at 0.1 µM turn out when `N#Cc1ccc(Cn2cnnc2CN(Cc2ccc(F)cc2F)C(=O)c2ccc(Br)s2)cc1` [compound 218] was run?
A: ≥ 10%

Q: With `N#Cc1ccc(Cn2cnnc2CN(CCc2ccc(Br)cc2)C(=O)c2ccc(Br)o2)cc1` [compound 219] as the compound, how does the inhibition at 0.1 µM read?
A: ≥ 10%

Q: Which inhibition at 0.1 µM does the source give for `COc1cc(C(=O)N(CCc2ccc(Br)cc2)Cc2nncn2Cc2ccc(C#N)cc2)nc2ccccc12` [compound 220] here?
A: ≥ 10%

Q: For `Cc1ccc(C(=O)N(Cc2ccc(F)cc2F)Cc2nncn2Cc2ccc(C#N)cc2)cc1-c1cc(Cl)ccc1Cl` [compound 221], which inhibition at 0.1 µM is on record?
A: ≥ 10%

Q: With `N#Cc1ccc(Cn2cnnc2CN(CCc2ccc(Br)cc2)C(=O)c2cccc(Br)c2)cc1` [compound 222] as the compound, how does the inhibition at 0.1 µM read?
A: ≥ 10%

Q: For `N#Cc1ccc(Cn2cnnc2CN(CCc2ccc(Br)cc2)C(=O)c2cc3ccccc3s2)cc1` [compound 223], which inhibition at 0.1 µM is on record?
A: ≥ 10%

Q: How did the inhibition at 0.1 µM turn out when `Cc1ccc(C(=O)N(Cc2ccc(F)cc2F)Cc2nncn2Cc2ccc(C#N)cc2)cc1-c1ccc(F)c(Cl)c1` [compound 224] was run?
A: ≥ 10%

Q: With `Cc1ccc(C)c(/C=C/C(=O)N(Cc2ccc(F)cc2F)Cc2nncn2Cc2ccc(C#N)cc2)c1` [compound 225] as the compound, how does the inhibition at 0.1 µM read?
A: ≥ 10%

Q: Which inhibition at 0.1 µM does the source give for `N#Cc1ccc(Cn2cnnc2CN(Cc2cc(C(F)(F)F)cc(C(F)(F)F)c2)C(=O)c2ccc3ccccc3n2)cc1` [compound 226] here?
A: ≥ 10%

Q: How did the inhibition at 0.1 µM turn out when `N#Cc1ccc(Cn2cnnc2CN(Cc2ccc(F)cc2F)C(=O)c2cccc(-c3cccc(C(F)(F)F)c3)c2)cc1` [compound 227] was run?
A: ≥ 10%

Q: With `N#Cc1ccc(Cn2cnnc2CN(Cc2ccc(F)cc2F)C(=O)c2ccc(Br)o2)cc1` [compound 229] as the compound, how does the inhibition at 0.1 µM read?
A: ≥ 10%

Q: How did the inhibition at 0.1 µM turn out when `Cc1cccc(Cc2nnc(CN(c3ccc(Oc4ccccc4)cc3)S(=O)(=O)c3ccc(-c4ccc(F)c(Cl)c4)cc3C)n2Cc2cccc(C)n2)n1` [compound 230] was run?
A: ≥ 10%

Q: `N#Cc1ccc(Cn2cnnc2CN(Cc2ccc(F)cc2F)C(=O)/C=C/c2cccc(C(F)(F)F)c2)cc1` [compound 231] was tested. Which inhibition at 0.1 µM did it give?
A: ≥ 10%

Q: With `N#Cc1ccc(Cn2cnnc2CN(Cc2ccccc2)C(=O)c2ccc3ccccc3n2)cc1` [compound 232] as the compound, how does the inhibition at 0.1 µM read?
A: ≥ 10%

Q: `Cc1ccc(C(=O)N(CCc2ccc(Br)cc2)Cc2nncn2Cc2ccc(C#N)cc2)cc1C` [compound 233] was tested. Which inhibition at 0.1 µM did it give?
A: ≥ 10%

Q: `N#Cc1ccc(Cn2cnnc2CN(Cc2c(F)cccc2F)c2ccc(Oc3ccccc3)cc2)cc1` [compound 234] was tested. Which inhibition at 0.1 µM did it give?
A: ≥ 10%

Q: Which inhibition at 0.1 µM does the source give for `COc1ccc(CCN(Cc2nncn2Cc2ccc(C#N)cc2)C(=O)c2ccc3ccccc3n2)cc1` [compound 236] here?
A: ≥ 10%

Q: `COc1ccc2oc(C(=O)N(CCc3ccc(Br)cc3)Cc3nncn3Cc3ccc(C#N)cc3)cc2c1` [compound 237] was tested. Which inhibition at 0.1 µM did it give?
A: ≥ 10%

Q: `N#Cc1ccc(Cn2cnnc2CN(Cc2c(F)ccc(F)c2F)c2ccc(Oc3ccccc3)cc2)cc1` [compound 238] was tested. Which inhibition at 0.1 µM did it give?
A: ≥ 10%

Q: How did the inhibition at 0.1 µM turn out when `N#Cc1ccc(Cn2cnnc2CN(Cc2ccc(F)cc2F)C(=O)c2cccc(-c3ccsc3)c2)cc1` [compound 239] was run?
A: ≥ 10%

Q: `N#Cc1ccc(Cn2cnnc2CN(Cc2ccc(F)cc2F)C(=O)/C=C/c2cccc(Br)c2)cc1` [compound 241] was tested. Which inhibition at 0.1 µM did it give?
A: ≥ 10%

Q: With `Cc1ccccc1-c1cccc(C(=O)N(Cc2ccc(F)cc2F)Cc2nncn2Cc2ccc(C#N)cc2)c1` [compound 242] as the compound, how does the inhibition at 0.1 µM read?
A: ≥ 10%

Q: With `N#Cc1ccc(Cn2cnnc2CN(Cc2ccc(F)cc2F)C(=O)c2cccc(Br)c2)cc1` [compound 243] as the compound, how does the inhibition at 0.1 µM read?
A: ≥ 10%

Q: Which inhibition at 0.1 µM does the source give for `N#Cc1ccc(Cn2cnnc2CN(CCc2ccc(Br)cc2)C(=O)c2ccc3c(c2)OCO3)cc1` [compound 244] here?
A: ≥ 10%

Q: How did the inhibition at 0.1 µM turn out when `N#Cc1ccc(Cn2cnnc2CN(Cc2ccc(F)cc2F)C(=O)/C=C/c2cc(F)cc(C(F)(F)F)c2)cc1` [compound 245] was run?
A: ≥ 10%

Q: For `N#Cc1ccc(Cn2cnnc2CN(Cc2ccc(F)cc2F)C(=O)c2cccc(Cl)c2)cc1` [compound 246], which inhibition at 0.1 µM is on record?
A: ≥ 10%

Q: Which inhibition at 0.1 µM does the source give for `N#Cc1ccc(Cn2cnnc2CN(Cc2ccco2)C(=O)c2ccc3ccccc3n2)cc1` [compound 247] here?
A: ≥ 10%

Q: With `N#Cc1ccc(Cn2cnnc2CN(C(=O)c2ccc3ccccc3n2)c2ccc(N3CCOCC3)cc2)cc1` [compound 248] as the compound, how does the inhibition at 0.1 µM read?
A: ≥ 10%

Q: With `N#Cc1ccc(Cn2cnnc2CN(Cc2ccc(F)cc2F)C(=O)/C=C/c2ccccc2Cl)cc1` [compound 249] as the compound, how does the inhibition at 0.1 µM read?
A: ≥ 10%

Q: `N#Cc1ccc(Cn2cnnc2CN(Cc2ccc(F)cc2F)C(=O)/C=C/c2ccc(Cl)c(Cl)c2)cc1` [compound 250] was tested. Which inhibition at 0.1 µM did it give?
A: ≥ 10%

Q: With `N#Cc1ccc(Cn2cnnc2CN(CCc2ccc(Br)cc2)C(=O)c2cc3ccccc3o2)cc1` [compound 251] as the compound, how does the inhibition at 0.1 µM read?
A: ≥ 10%

Q: `N#Cc1ccc(Cn2cnnc2CN(Cc2ccc(F)cc2F)C(=O)c2cc3ccccc3oc2=O)cc1` [compound 252] was tested. Which inhibition at 0.1 µM did it give?
A: ≥ 10%

Q: How did the inhibition at 0.1 µM turn out when `Cc1cccc(C(=O)N(Cc2ccc(F)cc2F)Cc2nncn2Cc2ccc(C#N)cc2)c1` [compound 253] was run?
A: ≥ 10%

Q: For `Cc1cccc(/C=C/C(=O)N(Cc2ccc(F)cc2F)Cc2nncn2Cc2ccc(C#N)cc2)c1` [compound 254], which inhibition at 0.1 µM is on record?
A: ≥ 10%

Q: For `COC(=O)c1cc(C)nc(N(Cc2nnc[nH]2)Cc2ccc(F)cc2F)[n+]1Cc1ccc(C#N)cc1` [compound 255], which inhibition at 0.1 µM is on record?
A: ≥ 10%

Q: Which inhibition at 0.1 µM does the source give for `N#Cc1ccc(Cn2cnnc2CN(C(=O)c2ccc3ccccc3n2)c2ccc(Oc3ccccc3)cc2)cc1` [compound 256] here?
A: ≥ 10%

Q: With `N#Cc1ccc(Cn2cnnc2CN(c2ccc(Oc3ccccc3)cc2)c2nccc(C(F)(F)F)n2)cc1` [compound 257] as the compound, how does the inhibition at 0.1 µM read?
A: ≥ 10%

Q: Which inhibition at 0.1 µM does the source give for `CC1=C(C(=O)N(Cc2ccc(F)cc2F)Cc2nncn2Cc2ccc(C#N)cc2)Cc2ccccc21` [compound 258] here?
A: ≥ 10%

Q: With `N#Cc1ccc(Cn2cnnc2CN(Cc2ccc(F)cc2F)C(=O)c2cccc(-c3ccccc3C(F)(F)F)c2)cc1` [compound 259] as the compound, how does the inhibition at 0.1 µM read?
A: ≥ 10%

Q: With `Cc1ccccc1-c1cc(C(=O)N(Cc2ccc(F)cc2F)Cc2nncn2Cc2ccc(C#N)cc2)ccc1C` [compound 260] as the compound, how does the inhibition at 0.1 µM read?
A: ≥ 10%

Q: With `N#Cc1ccc(Cn2cnnc2CN(CCC(c2ccccc2)c2ccccc2)C(=O)C2CCN(S(=O)(=O)c3ccc(F)cc3)CC2)cc1` [compound 261] as the compound, how does the inhibition at 0.1 µM read?
A: ≥ 10%

Q: `Cc1ccc(C(=O)N(Cc2ccc(F)cc2F)Cc2nncn2Cc2ccc(C#N)cc2)cc1C` [compound 262] was tested. Which inhibition at 0.1 µM did it give?
A: ≥ 10%

Q: For `N#Cc1ccc(Cn2cnnc2CN(CCc2ccc(Cl)cc2)C(=O)c2ccc3ccccc3n2)cc1` [compound 264], which inhibition at 0.1 µM is on record?
A: ≥ 10%

Q: For `N#Cc1ccc(Cn2cnnc2CN(CCc2ccc(Br)cc2)C(=O)c2ccc3ccccc3c2)cc1` [compound 265], which inhibition at 0.1 µM is on record?
A: ≥ 10%

Q: For `N#Cc1ccc(Cn2cnnc2CN(Cc2ccc(F)cc2F)C(=O)/C(=C/c2ccccc2)c2ccccc2)cc1` [compound 266], which inhibition at 0.1 µM is on record?
A: ≥ 10%

Q: `COc1ccccc1/C=C/C(=O)N(Cc1ccc(F)cc1F)Cc1nncn1Cc1ccc(C#N)cc1` [compound 267] was tested. Which inhibition at 0.1 µM did it give?
A: ≥ 10%

Q: For `COc1ccc2oc(C(=O)N(Cc3ccc(F)cc3F)Cc3nncn3Cc3ccc(C#N)cc3)cc2c1` [compound 268], which inhibition at 0.1 µM is on record?
A: ≥ 10%

Q: Which inhibition at 0.1 µM does the source give for `N#Cc1ccc(Cn2cnnc2CN(CCc2ccc(Br)cc2)C(=O)c2ccc3ccccc3n2)cc1` [compound 269] here?
A: ≥ 10%

Q: `N#Cc1ccc(Cn2cnnc2CN(Cc2ccc(F)cc2F)C(=O)c2cc3ccccc3s2)cc1` [compound 270] was tested. Which inhibition at 0.1 µM did it give?
A: ≥ 10%

Q: `N#Cc1ccc(Cn2cnnc2CN(CCSCc2c(F)cccc2Cl)C(=O)c2ccc3ccccc3n2)cc1` [compound 271] was tested. Which inhibition at 0.1 µM did it give?
A: ≥ 10%
